# Experimental data taken from patent publication US12303524B2, “Compositions comprising S-adenosylmethionine and a gallic acid ester” (MSI-195 HOLDINGS, LLC, priority 2012, dated 2025).
# Key:
# [1] = Plasma SAMe in beagles after tablets of SAMe co-formulated with alkyl gallates (Example 1); assay type: in vivo, Beagle dogs; details: single enteric coated tablet, 400 mg SAMe ion co-formulated with 25 mg gallic acid ester, fasted male beagles, FIG. 1
# Protocol: Tablets comprising SAMe and various alkyl gallates of different chemical structure were generated by mixing SAMe with either methyl gallate, ethyl gallate, butyl gallate, isobutyl gallate, isoamyl gallate or octyl gallate (see structures below). Tablets were then administered to Beagle dogs and blood samples were withdrawn over time. Analysis of concentrations of SAMe in plasma was used to compare the effects of these gallic acid esters on the uptake of orally administered SAMe in the blood.
# Tablets were generated by mixing 400 mg SAMe ion (from SAMe disulfate tosylate) with 25 mg gallic acid ester along with excipients (microcrystalline cellulose, sodium starch glycolate, silicon dioxide, and magnesium stearate) to make up the ˜1025 mg tablet. A commercial seal coat and then a commercial enteric coat was applied to the tablets prior to dissolution testing. Detailed dissolution profiling was performed according to USP standards at either pH 6.8 or 6.0 on each set of tablets to ensure that adequate dissolution was achieved prior to in vivo pharmacokinetic analysis.
# The study protocol was approved by the institution's Animal Care Committee, and all animals were cared for according to regulations proposed by Agriculture Canada and the USDA.
# Ten different formulations were tested in the present study. 400 mg SAMe co-formulated with 25 mg propyl gallate was compared to: SAMe control tablets (i.e., with no propyl gallate); SAMe tablets co-administered with separate 25 mg propyl gallate tablets; a commercially available SAMe product (400 mg); or 400 mg SAMe with 25 mg of either methyl gallate, ethyl gallate, butyl gallate, isobutyl gallate, isoamyl gallate or octyl gallate.
# [2] = PAMPA permeability of SAMe with and without propyl gallate (Example 4); assay type: in vitro ADME; details: for Average Effective Permeability: SAMe 2 mM, 5 hr
# Protocol: Using a PAMPA (parallel artificial membrane permeability assay) model, the permeability of SAMe was measured in the presence and absence of propyl gallate.
# PAMPA methods were used to determine the permeability of substances from a donor compartment, through a lipid-infused artificial membrane into an acceptor compartment. A multi-well microtitre plate was used for the donor and a membrane/acceptor compartment is placed on top. At the beginning of the test, SAMe disulfate tosylate (with or without different concentrations of propyl gallate as indicated in Table 2 below) was added to the donor compartment, and the acceptor compartment remained drug-free. After an incubation period, the compartments were separated and the amount of SAMe was measured in each compartment. Mass balance allows calculation of SAMe that remains in the membrane.
# [3] = Plasma SAMe in beagles after capsules of SAMe with gallate-related molecules (Example 2); assay type: in vivo, Beagle dogs; details: single capsule, 100 mg SAMe ion with 100 mg agent, versus BHT, propyl paraben and gallic acid, FIGS. 2A and 2B
# Protocol: BHT, propyl paraben and propyl gallate are food-grade antioxidants which have often been used in combination. […] The capsules also contained additional excipients (Microcrystalline cellulose, Sodium Starch Glycolate, Colloidal Silicon Dioxide, and Magnesium Stearate). Capsules were manually filled and in some embodiments, a layer of commercial seal coat was applied to the capsules using a fluid bed coater. Beagle dogs were administered a single orally delivered dose as described above.
# [4] = Beagle pharmacokinetics of SAMe tablets with various doses of propyl gallate (Example 6); details: for AUC(0-inf.) ± SD / AUC(0-t) / Cmax average of individuals / T1/2 ± SD / Tmax ± SD: oral, fasted beagles
# Protocol: Tablets comprising SAMe and various amounts of propyl gallate were generated by mixing S-adenosyl-L-methionine disulfate tosylate granules (equivalent to 400 mg of SAMe ion) with the various amounts of propyl gallate listed in Table 4 below. Each mixture was pressed into a tablet and coated followed by dissolution profiling and in vivo pharmacokinetic analysis using beagle dogs.
# For in vivo studies, fasted male beagle dogs (7-10 kg) were used as described above. Each group (6 dogs for SAMe/propyl gallate and 6 dogs for the SAMe control lacking propyl gallate) were dosed with a single orally administered enteric coated tablet, under fasted conditions, followed by 5 mL of purified water orally with a syringe to facilitate swallowing. Pharmacokinetic blood samples (2 mL each) for SAMe analysis were collected from the jugular vein using the following time points: pre-dose, 20 and 40 minutes, 1, 1.5, 2, 3, 4, 6, and 8 hours after treatment. The venipuncture blood samples were collected into tubes containing the anticoagulant K2-EDTA, and stored on wet ice pending processing. Following collection, samples were centrifuged (at 4° C.) to separate the plasma fraction from the blood cells. The resulting plasma fraction was recovered and stored frozen (at −80° C.) using polypropylene tubes pending bioanalytical analysis.
# The concentration of SAMe in dog plasma was determined using the well established LC/MS/MS method. This method employs stable-isotope dilution liquid chromatography-electrospray […] tandem mass spectrometry (LC-ESI-MS/MS) to determine SAMe and SAH in plasma. The analysis used to calculate the main pharmacokinetic parameters (Cmax, Tmax and AUC) was conducted using GraphPad Prism® 5 software.
# [5] = background statement; cited from earlier work
# Caco-2 cell monolayers = assay: Permeability of SAMe across Caco-2 cell monolayers with propyl gallate (Example 3); details: for apparent permeability coefficient Papp, apical to basolateral / apparent permeability coefficient Papp, basolateral to apical: SAMe salt alone
# Protocol: The Caco-2 cell line is derived from a human colorectal carcinoma and is widely used for in vitro cell culture models for the study of gastrointestinal drug absorption (Stewart, B., (1995) Pharm. Res. 12:693). In these models, pure cell lines are grown on a semi-permeable membrane. Drug formulations are placed on the apical or basolateral side of the cell monolayer and transport is determined via measurement of drug concentrations on the other side of the membrane.
# The Caco-2 cell line utilized here was from the American Type Culture Collection (ATCC). Caco-2 cells are grown in Dulbecco's modified Eagle's medium (DMEM, Gibco) supplemented with 20% FBS (fetal bovine serum, Gibco), 100 uM non-essential amino acids (NEAA, Gibco) and 2 mM L-glutamine (Gibco). A Beckton Dickinson BIOCOAT® HTS Caco-2 Assay System Kit was used resulting in 6.6×10^5 cells/cm^2 seeding density (BIOCOAT is a registered trademark of Collaborative Biomedical Products, Inc., Bedford, Massachusetts, USA). The cells used in transport studies were grown for 3 days before the experiments. The culturing conditions were 37° C. in an atmosphere of 5% CO2 and 100% humidity.
# A 2 mM aqueous solution of SAMe disulfate tosylate was added on the apical or basolateral side according to the manufacturer's procedure for the Caco-2 kit.
# The permeability (Papp) of SAMe is calculated using the following formula: […]
# Where dQ/dt is the rate of permeation, Co is the initial concentration of test agent, and A is the area of the monolayer.
# [6] = control tablet 400 mg SAMe, 0 mg Propyl Gallate
# [7] = tablet 400 mg SAMe, 6.25 mg Propyl Gallate
# [8] = tablet 400 mg SAMe, 25 mg Propyl Gallate
# [9] = tablet 400 mg SAMe, 100 mg Propyl Gallate
molecule,measurement,setting,value
CCCOC(=O)c1cc(O)c(O)c(O)c1 [propyl gallate],"maximum SAMe plasma concentration (Cmax), uptake into the plasma",[1],superior uptake into the plasma
same,effect of propyl gallate on SAMe transport across the PAMPA membrane,[2]; propyl gallate at 2.0 mM,no effect on SAMe transport
same,"plasma SAMe Cmax and AUC, SAMe uptake into the blood",[3],superior and surprising ability of propyl gallate to increase SAMe uptake into the blood
same,relationship of propyl gallate dose with SAMe uptake in vivo,"[4]; dog, in vivo",dose-response relationship with SAMe uptake in vivo
CCCCCCCCOC(=O)c1cc(O)c(O)c(O)c1 [octyl gallate],"maximum SAMe plasma concentration (Cmax), uptake into the plasma",[1],superior uptake into the plasma
CC(C)CCOC(=O)c1cc(O)c(O)c(O)c1 [isoamyl gallate],"maximum SAMe plasma concentration (Cmax), uptake into the plasma",[1],superior uptake into the plasma
CCOC(=O)c1cc(O)c(O)c(O)c1 [ethyl gallate],"maximum SAMe plasma concentration (Cmax), uptake into the plasma",[1],superior uptake into the plasma
"C[S+](CC[C@H](N)C(=O)[O-])C[C@H]1O[C@@H](n2cnc3c(N)ncnc32)[C@H](O)[C@@H]1O (stereo partly drawn) [SAMe, S-adenosyl-L-methionine]",transport of SAMe across the PAMPA membrane,[2],essentially no transport
same,Average Effective Permeability,[2]; Propyl Gallate 0 mM,0.42 ×10⁻⁶ cm/s
same,Average Effective Permeability,[2]; Propyl Gallate 0.2 mM,0.2 ×10⁻⁶ cm/s
same,Average Effective Permeability,[2]; Propyl Gallate 2 mM,0.48 ×10⁻⁶ cm/s
same,AUC(0-inf.) ± SD,[4]; [6],"15,186 ± 6,831 hr*ng/mL"
same,AUC(0-t),[4]; [6],"14,756 hr*ng/mL"
same,Cmax average of individuals,[4]; [6],6731 ng/mL
same,T1/2 ± SD,[4]; [6],1.4 ± 0.4 h
same,Tmax ± SD,[4]; [6],1.8 ± 0.7 h
same,AUC(0-inf.) ± SD,[4]; [7],"21,734 ± 9848 hr*ng/mL"
same,AUC(0-t),[4]; [7],"21,395 hr*ng/mL"
same,Cmax average of individuals,[4]; [7],"11,269 ng/mL"
same,T1/2 ± SD,[4]; [7],1.4 ± 0.5 h
same,Tmax ± SD,[4]; [7],1.4 ± 0.8 h
same,AUC(0-inf.) ± SD,[4]; [8],"25,159 ± 13,033 hr*ng/mL"
same,AUC(0-t),[4]; [8],"24,847 hr*ng/mL"
same,Cmax average of individuals,[4]; [8],"15,333 ng/mL"
same,T1/2 ± SD,[4]; [8],1.5 ± 0.4 h
same,Tmax ± SD,[4]; [8],1.2 ± 0.5 h
same,AUC(0-inf.) ± SD,[4]; [9],"34,305 ± 18,484 hr*ng/mL"
same,AUC(0-t),[4]; [9],"34,078 hr*ng/mL"
same,Cmax average of individuals,[4]; [9],"18,700 ng/mL"
same,T1/2 ± SD,[4]; [9],1.0 ± 0.2 h
same,Tmax ± SD,[4]; [9],1.6 ± 0.7 h
same,uptake of exogenous SAMe,[5],< 5%
same,Average Permeability Coefficient Apical→Basolateral,Caco-2 cell monolayers; Caco-2,1.6 ×10⁻⁶ cm/s
same,Average Permeability Coefficient Basolateral→Apical,Caco-2 cell monolayers; Caco-2,1.7 ×10⁻⁶ cm/s
"C[S+](CC[C@H](N)C(=O)[O-])C[C@H]1O[C@@H](n2cnc3c(N)ncnc32)[C@H](O)[C@@H]1O.O=S(=O)(O)CCCCS(=O)(=O)O (stereo partly drawn) [SAMe 1,4 butanedisulfonate]","apparent permeability coefficient Papp, apical to basolateral",Caco-2 cell monolayers,0.5 ×10⁻⁶ cm/s
same,"apparent permeability coefficient Papp, basolateral to apical",Caco-2 cell monolayers,0.6 ×10⁻⁶ cm/s
S-adenosyl-L-methionine disulfate tosylate [SAMe disulfate tosylate],"apparent permeability coefficient Papp, apical to basolateral",Caco-2 cell monolayers,0.41 ×10⁻⁶ cm/s
same,"apparent permeability coefficient Papp, basolateral to apical",Caco-2 cell monolayers,0.5 ×10⁻⁶ cm/s
CCCCOC(=O)c1cc(O)c(O)c(O)c1 [butyl gallate],"maximum SAMe plasma concentration (Cmax), uptake into the plasma",[1],did not result in pharmacokinetics even close to that of SAMe-propyl gallate formulations
